Measurements taken from patent US20240180900A1, “COMPOUNDS AND METHODS FOR THE TARGETED DEGRADATION OF ANDROGEN RECEPTOR” (Arvinas Operations, Inc., priority 2022, published 2024).
“Also recorded” adds a separate entry of the source.

Assay: Phase 1/2 study in mCRPC participants: safety
[1] = all causality SAEs, Phases 1 and 2 combined, N = 47
[2] = all-causality TEAEs, Phase 1, N = 34

SMILES: COc1cc(O[C@H]2C(C)(C)[C@H](NC(=O)c3ccc(N4CCC(CN5CCN(c6ccc(C(=O)N[C@H]7CCC(=O)NC7=O)c(F)c6)CC5)CC4)cc3)C2(C)C)ccc1C#N [Compound A, 4-(4-((1-(4-(((1R,3R)-3-(4-cyano-3-methoxyphenoxy)-2,2,4,4-tetramethylcyclobutyl)carbamoyl)phenyl)piperidin-4-yl)methyl)piperazin-1-yl)-N—((S)-2,6-dioxopiperidin-3-yl)-2-fluorobenzamide]
- DLTs (Part A (Phase 1 dose escalation), 20 mg to 500 mg QD): No DLTs have been reported
- Grade 4 or 5 TRAEs (Phase 1): no Grade 4 or 5 TRAEs
- TRAE of Grade 3 aspartate aminotransferase increased (Phase 1): 1
- TRAE of Grade 3 fatigue (Phase 1): 1
- participants who discontinued study treatment due to a TEAE (Phase 1): No participant
- treatment discontinuation due to TRAE (Phase 1): no treatment discontinuation
- participants with treatment-emergent SAEs regardless of attribution (Phase 1, of 34): 11 participants
- tolerability (Phase 1/2, post-NHA mCRPC patients, 40 mg to 500 mg once daily): well-tolerated; also recorded: well tolerated
- treatment-related SAEs (Phase 1 and Phase 2): No treatment-related SAEs were reported
- grade of the majority of TRAEs (Phase 1 dose escalation and Phase 2 interim data): Grade 1/2
- SAEs (Phase 2): no SAEs were reported
- TRAE abdominal pain (Phase 2): 2 (15.4%) participants
- TRAE alopecia (Phase 2): 2 (15.4%) participants
- TRAE dysgeusia (Phase 2): 2 (15.4%) participants
- TRAE nausea (Phase 2): 2 (15.4%) participants
- TRAE of Grade 3 abdominal pain (Phase 2): 1
- dose reductions due to a TRAE (Phase 2): two
- treatment discontinuation due to a TRAE (Phase 2): one
- participants who discontinued treatment due to a TEAE (Phase 2, Grade 3 abdominal pain, related): One
- participants with TEAEs regardless of attribution (Phases 1 and 2, of 47): 44 participants
- participants with TEAEs at least potentially related to Compound A (Phases 1 and 2 combined, of 47): 25 participants
- Blood and lymphatic system disorders: Any Grade [1]: 1 participants
- Blood and lymphatic system disorders: Grade 3 [1]: 0 participants
- Blood and lymphatic system disorders: Grade 4 [1]: 1 (2.1) participants
- Blood and lymphatic system disorders: Grade 5 [1]: 0 participants
- Brain stem stroke: Any Grade [1]: 1 participants
- Brain stem stroke: Grade 3 [1]: 0 participants
- Brain stem stroke: Grade 4 [1]: 0 participants
- Cystitis noninfective: Any Grade [1]: 1 participants
- Cystitis noninfective: Grade 3 [1]: 1 participants
- Cystitis noninfective: Grade 4 [1]: 0 participants
- Cystitis noninfective: Grade 5 [1]: 0 participants
- Diarrhoea: Any Grade [1]: 1 participants
- Diarrhoea: Grade 3 [1]: 1 participants
- Diarrhoea: Grade 4 [1]: 0 participants
- Diarrhoea: Grade 5 [1]: 0 participants
- Dyspnoea: Any Grade [1]: 1 participants
- Dyspnoea: Grade 3 [1]: 1 participants
- Dyspnoea: Grade 4 [1]: 0 participants
- Dyspnoea: Grade 5 [1]: 0 participants
- Febrile neutropenia: Any Grade [1]: 1 participants
- Febrile neutropenia: Grade 3 [1]: 0 participants
- Febrile neutropenia: Grade 5 [1]: 0 participants
- Gastrointestinal disorders: Any Grade [1]: 1 participants
- Gastrointestinal disorders: Grade 3 [1]: 1 participants
- Gastrointestinal disorders: Grade 4 [1]: 0 participants
- Gastrointestinal disorders: Grade 5 [1]: 0 participants
- Grade 2 lethargy (SAE) [1]: one
- Haematuria: Any Grade [1]: 1 participants
- Haematuria: Grade 3 [1]: 1 participants
- Haematuria: Grade 4 [1]: 0 participants
- Haematuria: Grade 5 [1]: 0 participants
- Hypoxia: Any Grade [1]: 1 participants
- Hypoxia: Grade 3 [1]: 1 participants
- Hypoxia: Grade 4 [1]: 0 participants
- Hypoxia: Grade 5 [1]: 0 participants
- Infections and infestations: Any Grade [1]: 2 participants
- Infections and infestations: Grade 3 [1]: 2 participants
- Infections and infestations: Grade 4 [1]: 0 participants
- Infections and infestations: Grade 5 [1]: 0 participants
- Lethargy: Any Grade [1]: 1 participants
- Lethargy: Grade 3 [1]: 0 participants
- Lethargy: Grade 4 [1]: 0 participants
- Lethargy: Grade 5 [1]: 0 participants
- Nervous system disorders: Any Grade [1]: 4 participants
- Nervous system disorders: Grade 3 [1]: 2 participants
- Nervous system disorders: Grade 4 [1]: 0 participants
- Nervous system disorders: Grade 5 [1]: 1 (2.1) participants
- Participants with any serious TEAEs: Any Grade [1]: 11 participants
- Participants with any serious TEAEs: Grade 3 [1]: 8 participants
- Participants with any serious TEAEs: Grade 4 [1]: 1 (2.1) participants
- Participants with any serious TEAEs: Grade 5 [1]: 1 (2.1) participants
- Pneumonia: Any Grade [1]: 1 participants
- Pneumonia: Grade 3 [1]: 1 participants
- Pneumonia: Grade 4 [1]: 0 participants
- Pneumonia: Grade 5 [1]: 0 participants
- Renal and urinary disorders: Any Grade [1]: 3 participants
- Renal and urinary disorders: Grade 3 [1]: 3 participants
- Renal and urinary disorders: Grade 4 [1]: 0 participants
- Renal and urinary disorders: Grade 5 [1]: 0 participants
- Respiratory, thoracic and mediastinal disorders: Any Grade [1]: 2 participants
- Respiratory, thoracic and mediastinal disorders: Grade 3 [1]: 2 participants
- Respiratory, thoracic and mediastinal disorders: Grade 4 [1]: 0 participants
- Respiratory, thoracic and mediastinal disorders: Grade 5 [1]: 0 participants
- Soft tissue infection: Any Grade [1]: 1 participants
- Soft tissue infection: Grade 3 [1]: 1 participants
- Soft tissue infection: Grade 4 [1]: 0 participants
- Soft tissue infection: Grade 5 [1]: 0 participants
- Spinal cord compression: Any Grade [1]: 1 participants
- Spinal cord compression: Grade 3 [1]: 1 participants
- Spinal cord compression: Grade 4 [1]: 0 participants
- Spinal cord compression: Grade 5 [1]: 0 participants
- Tremor: Any Grade [1]: 1 participants
- Tremor: Grade 3 [1]: 1 participants
- Tremor: Grade 4 [1]: 0 participants
- Tremor: Grade 5 [1]: 0 participants
- Urinary tract obstruction: Any Grade [1]: 1 participants
- Urinary tract obstruction: Grade 3 [1]: 1 participants
- Urinary tract obstruction: Grade 4 [1]: 0 participants
- Urinary tract obstruction: Grade 5 [1]: 0 participants
- Alopecia: Any Grade [2]: 4 participants
- Alopecia: Grade 3 [2]: 0 participants
- Alopecia: Grade 4 [2]: 0 participants
- Alopecia: Grade 5 [2]: 0 participants
- Anaemia: Any Grade [2]: 6 participants
- Anaemia: Grade 3 [2]: 0 participants
- Anaemia: Grade 4 [2]: 0 participants
- Anaemia: Grade 5 [2]: 0 participants
- Aspartate aminotransferase increased: Any Grade [2]: 5 participants
- Aspartate aminotransferase increased: Grade 3 [2]: 1 participants
- Aspartate aminotransferase increased: Grade 4 [2]: 0 participants
- Aspartate aminotransferase increased: Grade 5 [2]: 0 participants
- Blood alkaline phosphatase increased: Any Grade [2]: 8 participants
- Blood alkaline phosphatase increased: Grade 3 [2]: 0 participants
- Blood alkaline phosphatase increased: Grade 4 [2]: 0 participants
- Blood alkaline phosphatase increased: Grade 5 [2]: 0 participants
- Blood and lymphatic system disorders: Any Grade [2]: 7 participants
- Blood and lymphatic system disorders: Grade 3 [2]: 0 participants
- Blood and lymphatic system disorders: Grade 4 [2]: 1 participants
- Blood and lymphatic system disorders: Grade 5 [2]: 0 participants
- Blood creatinine increased: Any Grade [2]: 7 participants
- Blood creatinine increased: Grade 3 [2]: 0 participants
- Blood creatinine increased: Grade 4 [2]: 0 participants
- Blood creatinine increased: Grade 5 [2]: 0 participants
- Constipation: Any Grade [2]: 4 participants
- Constipation: Grade 3 [2]: 0 participants
- Constipation: Grade 4 [2]: 0 participants
- Constipation: Grade 5 [2]: 0 participants
- Cough: Any Grade [2]: 4 participants
- Cough: Grade 3 [2]: 0 participants
- Cough: Grade 4 [2]: 0 participants
- Cough: Grade 5 [2]: 0 participants
- Decreased appetite: Any Grade [2]: 5 participants
- Decreased appetite: Grade 3 [2]: 0 participants
- Decreased appetite: Grade 4 [2]: 0 participants
- Decreased appetite: Grade 5 [2]: 0 participants
- Diarrhoea: Any Grade [2]: 7 participants
- Diarrhoea: Grade 3 [2]: 2 participants
- Diarrhoea: Grade 4 [2]: 0 participants
- Diarrhoea: Grade 5 [2]: 0 participants
- Dyspnoea: Any Grade [2]: 4 participants
- Dyspnoea: Grade 3 [2]: 1 participants
- Dyspnoea: Grade 4 [2]: 0 participants
- Dyspnoea: Grade 5 [2]: 0 participants
- Fatigue: Any Grade [2]: 12 participants
- Fatigue: Grade 3 [2]: 1 participants
- Fatigue: Grade 4 [2]: 0 participants
